Measured values taken from publication PMC7156458, “Synthetic biology based construction of biological activity-related library of fungal decalin-containing diterpenoid pyrones” (Nature Communications, 2020).

Molecular target: Aβ42 (Homo sapiens, UniProt P05067)
Experiment: Th-T (thioflavin-T) assay of Aβ42 aggregation
Format: biochemical
Details: for Th-T fluorescence, mean of three wells: compound at 50

Sequence of Aβ42 (P05067 672-713): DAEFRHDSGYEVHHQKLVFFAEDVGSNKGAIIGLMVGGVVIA

C=C1CC[C@@H]2[C@](C)(CC[C@H]3O[C@H](C=C(C)C)C[C@@]23C)[C@@H]1Cc1c(OC)oc(CO)c(C)c1=O [Compound 20]
Th-T fluorescence, mean of three wells (reading M54 of time course): 2.134 | Th-T fluorescence, mean of three wells (reading M55 of time course): 2.09 | Th-T fluorescence, mean of three wells (reading M56 of time course): 2.129 | Th-T fluorescence, mean of three wells (reading M57 of time course): 2.102 | Th-T fluorescence, mean of three wells (reading M58 of time course): 2.115 | Th-T fluorescence, mean of three wells (reading M59 of time course): 2.0923 | Th-T fluorescence, mean of three wells (reading M60 of time course): 2.089 | Th-T fluorescence, mean of three wells (reading M61 of time course): 2.104 | Th-T fluorescence, mean of three wells (reading M62 of time course): 2.094 | Th-T fluorescence of Aβ42 with compound, mean of three wells (Fig. 7a source data) (concentration 10, unit not given, time-course reading M129): 3.179 | Th-T fluorescence of Aβ42 with compound, mean of three wells (Fig. 7a source data) (concentration 10, unit not given, time-course reading M130): 3.204 | Th-T fluorescence of Aβ42 with compound, mean of three wells (Fig. 7a source data) (concentration 10, unit not given, time-course reading M131): 3.189 | Th-T fluorescence of Aβ42 with compound, mean of three wells (Fig. 7a source data) (concentration 10, unit not given, time-course reading M132): 3.188 | Th-T fluorescence of Aβ42 with compound, mean of three wells (Fig. 7a source data) (concentration 10, unit not given, time-course reading M133): 3.166 | Th-T fluorescence of Aβ42 with compound, mean of three wells (Fig. 7a source data) (concentration 10, unit not given, time-course reading M134): 3.1894 | Th-T fluorescence of Aβ42 with compound, mean of three wells (Fig. 7a source data) (concentration 10, unit not given, time-course reading M135): 3.162 | Th-T fluorescence of Aβ42 with compound, mean of three wells (Fig. 7a source data) (concentration 10, unit not given, time-course reading M136): 3.159 | Th-T fluorescence of Aβ42 with compound, mean of three wells (Fig. 7a source data) (concentration 10, unit not given, time-course reading M137): 3.15 | Th-T fluorescence of Aβ42 with compound, mean of three wells (Fig. 7a source data) (concentration 10, unit not given, time-course reading M138): 3.16 | Th-T fluorescence of Aβ42 with compound, mean of three wells (Fig. 7a source data) (concentration 10, unit not given, time-course reading M139): 3.169 | Th-T fluorescence of Aβ42 with compound, mean of three wells (Fig. 7a source data) (concentration 10, unit not given, time-course reading M140): 3.158 | Th-T fluorescence of Aβ42 with compound, mean of three wells (Fig. 7a source data) (concentration 10, unit not given, time-course reading M141): 3.147 | Th-T fluorescence of Aβ42 with compound, mean of three wells (Fig. 7a source data) (concentration 10, unit not given, time-course reading M142): 3.131 | Th-T fluorescence of Aβ42 with compound, mean of three wells (Fig. 7a source data) (concentration 10, unit not given, time-course reading M143): 3.135 | Th-T fluorescence of Aβ42 with compound, mean of three wells (Fig. 7a source data) (concentration 10, unit not given, time-course reading M144): 3.139 | Th-T fluorescence of Aβ42 with compound, mean of three wells (Fig. 7a source data) (concentration 10, unit not given, time-course reading M145): 3.1201 | Th-T fluorescence of Aβ42 with compound, mean of three wells (Fig. 7a source data) (concentration 20, unit not given, time-course reading M129): 3.1 | Th-T fluorescence of Aβ42 with compound, mean of three wells (Fig. 7a source data) (concentration 20, unit not given, time-course reading M130): 3.095 | Th-T fluorescence of Aβ42 with compound, mean of three wells (Fig. 7a source data) (concentration 20, unit not given, time-course reading M131): 3.098 | Th-T fluorescence of Aβ42 with compound, mean of three wells (Fig. 7a source data) (concentration 20, unit not given, time-course reading M132): 3.079 | Th-T fluorescence of Aβ42 with compound, mean of three wells (Fig. 7a source data) (concentration 20, unit not given, time-course reading M133): 3.072 | Th-T fluorescence of Aβ42 with compound, mean of three wells (Fig. 7a source data) (concentration 20, unit not given, time-course reading M134): 3.073 | Th-T fluorescence of Aβ42 with compound, mean of three wells (Fig. 7a source data) (concentration 20, unit not given, time-course reading M135): 3.076 | Th-T fluorescence of Aβ42 with compound, mean of three wells (Fig. 7a source data) (concentration 20, unit not given, time-course reading M136): 3.0605 | Th-T fluorescence of Aβ42 with compound, mean of three wells (Fig. 7a source data) (concentration 20, unit not given, time-course reading M137): 3.049 | Th-T fluorescence of Aβ42 with compound, mean of three wells (Fig. 7a source data) (concentration 20, unit not given, time-course reading M138): 3.042 | Th-T fluorescence of Aβ42 with compound, mean of three wells (Fig. 7a source data) (concentration 20, unit not given, time-course reading M139): 3.041 | Th-T fluorescence of Aβ42 with compound, mean of three wells (Fig. 7a source data) (concentration 20, unit not given, time-course reading M140): 3.025 | Th-T fluorescence of Aβ42 with compound, mean of three wells (Fig. 7a source data) (concentration 20, unit not given, time-course reading M141): 3.02 | Th-T fluorescence of Aβ42 with compound, mean of three wells (Fig. 7a source data) (concentration 20, unit not given, time-course reading M142): 3.019 | Th-T fluorescence of Aβ42 with compound, mean of three wells (Fig. 7a source data) (concentration 20, unit not given, time-course reading M143): 3.013 | Th-T fluorescence of Aβ42 with compound, mean of three wells (Fig. 7a source data) (concentration 20, unit not given, time-course reading M144): 3.009 | Th-T fluorescence of Aβ42 with compound, mean of three wells (Fig. 7a source data) (concentration 20, unit not given, time-course reading M145): 2.993 | Th-T fluorescence of Aβ42 with compound, mean of three wells (Fig. 7a source data) (concentration 50, unit not given, time-course reading M129): 2.106 | Th-T fluorescence of Aβ42 with compound, mean of three wells (Fig. 7a source data) (concentration 50, unit not given, time-course reading M130): 2.116 | Th-T fluorescence of Aβ42 with compound, mean of three wells (Fig. 7a source data) (concentration 50, unit not given, time-course reading M131): 2.114 | Th-T fluorescence of Aβ42 with compound, mean of three wells (Fig. 7a source data) (concentration 50, unit not given, time-course reading M132): 2.119 | Th-T fluorescence of Aβ42 with compound, mean of three wells (Fig. 7a source data) (concentration 50, unit not given, time-course reading M133): 2.114 | Th-T fluorescence of Aβ42 with compound, mean of three wells (Fig. 7a source data) (concentration 50, unit not given, time-course reading M134): 2.123 | Th-T fluorescence of Aβ42 with compound, mean of three wells (Fig. 7a source data) (concentration 50, unit not given, time-course reading M135): 2.118 | Th-T fluorescence of Aβ42 with compound, mean of three wells (Fig. 7a source data) (concentration 50, unit not given, time-course reading M136): 2.117 | Th-T fluorescence of Aβ42 with compound, mean of three wells (Fig. 7a source data) (concentration 50, unit not given, time-course reading M137): 2.122 | Th-T fluorescence of Aβ42 with compound, mean of three wells (Fig. 7a source data) (concentration 50, unit not given, time-course reading M138): 2.119 | Th-T fluorescence of Aβ42 with compound, mean of three wells (Fig. 7a source data) (concentration 50, unit not given, time-course reading M139): 2.116 | Th-T fluorescence of Aβ42 with compound, mean of three wells (Fig. 7a source data) (concentration 50, unit not given, time-course reading M140): 2.117 | Th-T fluorescence of Aβ42 with compound, mean of three wells (Fig. 7a source data) (concentration 50, unit not given, time-course reading M141): 2.123 | Th-T fluorescence of Aβ42 with compound, mean of three wells (Fig. 7a source data) (concentration 50, unit not given, time-course reading M142): 2.118
